In publication PMC8570331, “8-Hydroxyquinoline-Amino Acid Hybrids and Their Half-Sandwich Rh and Ru Complexes: Synthesis, Anticancer Activities, Solution Chemistry and Interaction with Biomolecules” (International Journal of Molecular Sciences, 2021):
Like-named read-outs stand apart in the source and are kept apart here.

Columns and labels:
[1] = Distribution coefficients, shake-flask n-octanol/buffered aqueous solution; format: physicochemical; settings: pH 7.4, n-octanol/buffer, in 100 mM KCl, read-out: logD7.4
Protocol: It is worth noting that these amino acid hybrids have excellent water solubility due to their zwitterionic form, unlike most 8-hydroxyquinolines.
Distribution coefficients of the ligands as well as of the complexes were determined at pH = 7.4 using the traditional shake-flask method in n-octanol/buffered aqueous solution (20 mM phosphate) at different chloride ion concentrations (4, 24 and 100 mM) using UV-vis spectrophotometry for the analysis. The measurement and data evaluation were performed as described in our former work.

[2] = Proton dissociation constants of the ligands (pH-potentiometry, UV-vis, 1H NMR titrations); format: physicochemical; settings: for pKa: aqueous solution, I = 0.2 M KNO3, T = 25.0 °C
Protocol: pH-potentiometric measurements were carried out at 25.0 ± 0.1 °C in water in the pH range between 2.0 and 11.5 and at a constant ionic strength of 0.2 M KNO3. The titrations were performed in a carbonate-free KOH solution (0.20 M). The exact concentrations of HNO3 and KOH solutions were determined by pH-potentiometric titrations. An Orion 710A pH-meter equipped with a Metrohm combined electrode (type 6.0234.100) and a Metrohm 665 Dosimat burette were used for the pH-potentiometric measurements. […] The average water ionization constant, pKw, was determined as 13.76 ± 0.01, which is in good agreement with the literature data. The initial volume of the samples was 5.0 mL. The ligand concentration was 1.75 or 2.0 mM. Samples were degassed by bubbling purified argon through them for about 10 min prior to the measurements, and the inert gas was also passed over the solutions during the titrations. The computer program Hyperquad2013 [46] was utilized to establish the stoichiometry of the species and to calculate the equilibrium constants, similarly to that performed in our previous works.
(§1) Agilent Cary 8454 diode array spectrophotometer was utilized to obtain UV-vis spectra in the wavelength range 190–1100 nm. The path length (ℓ) was 1 cm in most cases (the actual ℓ is always indicated in the legends of the figures). The concentrations of the ligands and complexes were between 88 and 240 µM. For HSA and ct-DNA containing samples, complex concentrations were 100 µM, and 0.5 and 2 equiv. biomolecule were added for kinetic studies, respectively. Individual samples contained 0–20 µM HSA and 0–1.75 mM (nucleotide) ct-DNA. Spectra were always background corrected. The computer program HypSpec was used to obtain stability constants.
(§2) Bruker Avance III HD Ascend 500 Plus instrument (Billerica, MA, USA) was used for NMR studies. ^1H NMR spectroscopic measurements were carried out with a WATERGATE water suppression pulse scheme in the presence of 10% (v/v) D2O in most cases. DSS internal standard was added to samples to obtain reference peaks. Complex concentrations were 0.5 mM or 1.0 mM, and 0.5 equiv. HSA was added. ^1H NMR titrations were carried out in the presence of 0.2 M KNO3. With the FHA model peptide, the measurements were performed at 0.5 or 1 mM metal complex concentrations, and 1:1, 1:2 or 2:1 peptide-to-metal complex ratios were applied. The computer program HypSpec was used to obtain stability constants.

[3] = Formation constants of RhCp* complexes by ligand displacement with 2-picolylamine; format: physicochemical; settings: pH 7.4, displacement by 2-picolylamine, UV-vis, chloride-free
Description: Besides 2-picolylamine, the rigid aromatic 1,10-phenantroline (phen, Figure 6) or the excess of the 8-hydroxyquinoline ligand itself (Figure S20) also results in the loss of p-cymene. Two main processes were seen upon the addition of two equiv. phen to the complex (Figure 6). The first step is most probably the loss of the arene ring and the formation of a mixed-ligand complex [Ru(II)(HQCl-D-ProH−1)(phen)(H2O)2]^+ (λmax = 500 nm), which is followed by the slower binding of the second phen.
as §1

[4] = test system: human serum albumin (HSA); experiment: CD spectroscopy of HSA secondary structure; format: binding; settings: up to 5 equivalents complex, 50% without complex
Protocol: Possible changes in the secondary structure of HSA due to its interaction with the RhCp* and RuCym complexes of HQCl-D-hPro were investigated by CD spectroscopy. HSA is mostly composed of α-helices, and its CD spectrum can be characterized by two negative bands (208 and 222 nm). […] Only at higher complex excess (>10) we observed somewhat larger changes; however, such protein-to-complex ratios are far from the biologically relevant conditions.
CD spectroscopy experiments were performed by a JASCO-J-1500 (ABL&E–JASCO Hungary Ltd., Budapest, Hungary) spectrometer using 0.2 or 1 cm optical path length in the wavelength range from 200 to 250 or to 350 nm. The scanning speed was 200 nm/min. The analytical concentration of HSA and ct-DNA was constant (2 and 98 µM, respectively), and the concentration of the complexes was varied (0–26 and 0–47 µM, respectively).

[5] = Solution stability of the complexes by 1H NMR; format: physicochemical; settings: pH 0.7, 24 h equilibration, 500 μM
Protocol: as §2

For `O=C(O)[C@H]1CCCCN1Cc1cc(Cl)c2cccnc2c1O` [HQCl-D-hPro, (R)-5-chloro-7-((homoproline-1-yl)methyl)8-hydroxyquinoline], the logD [1] was 0.36, the pKa ([2]; 1H NMR, read-out: pKa (NhPro/ProH+)) was over 11 and the pKa ([2]; 1H NMR, read-out: pKa (NqH+)) was 2.52 ± 0.03. For the same compound, the pKa ([2]; 1H NMR, read-out: pKa (OH)) was 7.54 ± 0.02, the pKa ([2]; UV-vis, read-out: pKa (NhPro/ProH+)) was 11.43 ± 0.01 and the pKa ([2]; UV-vis, read-out: pKa (NqH+)) was 2.43 ± 0.01. The pKa ([2]; UV-vis, read-out: pKa (OH)) was 7.49 ± 0.04, the pKa ([2]; pH-potentiometry, read-out: pKa (NhPro/ProH+)) was over 11 and the pKa ([2]; pH-potentiometry, read-out: pKa (NqH+)) was 2.42 ± 0.04. The pKa ([2]; pH-potentiometry, read-out: pKa (OH)) was 7.52 ± 0.06 and the “fraction of the negatively charged species (O−, COO−, NhPro/ProH+)” value ([2]; at pH 7.4) was 42%.
In the case of `Cc1c(C)c(C)[c-](C)c1C.O=C(O)[C@H]1CCC[NH+]1Cc1cc(Cl)c2cccnc2c1[O-].[Cl-].[Cl-].[Rh+3]` [RhCp*–HQCl-D-Pro, [RhCp*(HQCl-D-Pro)Cl]Cl], the “stability constant logK of the RhCp* complex” value [3] is reported as 13.48 ± 0.03.
In the case of `Cc1c(C)c(C)[c-](C)c1C.O=C(O)[C@H]1CCCC[NH+]1Cc1cc(Cl)c2cccnc2c1[O-].[Cl-].[Cl-].[Rh+3]` [RhCp*–HQCl-D-hPro, [RhCp*(HQCl-D-hPro)Cl]Cl], the “α-helix content of HSA in the presence of the complex” value [4] is reported as 47%, the “stability constant logK of the RhCp* complex” value [3] is reported as 13.35 ± 0.03 and the “fraction of complex dissociated” value [5] is reported as ~ 3%.
With `Cc1ccc(C(C)C)cc1.O=C(O)[C@H]1CCCC[NH+]1Cc1cc(Cl)c2cccnc2c1[O-].[Cl-].[Cl-].[Ru+2]` [RuCym–HQCl-D-hPro, [RuCym(HQCl-D-hPro)Cl]Cl] the “α-helix content of HSA in the presence of the complex” value [4] was 46% and the “fraction of complex dissociated” value [5] was ~ 2%.
